Data reported in US11040223B2, “Compositions and methods related to xCT peptides” (AGILVAX, INC., priority 2015, dated 2021).

What was measured:
TUBO cells = test: MTT in vitro cytotoxicity on TUBO cells; format: cell-based, mouse; details: 72 hours
Procedure: (§1) A MTT test was performed on TUBO cells and tumorspheres that had either been treated or not with scalar doses of xCT inhibitor SASP. […] On the contrary, xCT overexpression increases colony generating ability, as confirmed by the higher number of colonies generated in soft agar by NIH/3T3 and HEK-293 cells transfected with xCT when compared with the corresponding cells transfected with empty plasmids.
(§2) Twenty-four hours after TUBO cells and tumorspheres seeding in 96-well plates, scalar doses of doxorubicin or sulfasalazine (SASP; Sigma-Aldrich) were added and incubated at 37° C. for 72 hours. Cytotoxicity was evaluated with MTT using the Cell Proliferation Kit I (Roche Diagnostics).

[1] = system: TUBO-derived tumorspheres; test: MTT in vitro cytotoxicity on tumorspheres; format: cell-based; details: Mus musculus, 72 hours, read-out: IC50, tumorsphere viability (MTT)
Procedure: as §1, §2

tumorspheres = test: Tumorsphere generation after SASP or xCT siRNAs; format: cell-based, mouse; details: spheres counted 5 days later (SASP)
Procedure: FIG. 4A-4H. xCT regulates CSC self-renewal and the intracellular redox balance. A and B, MTT assay of the cytotoxic effect exerted by scalar doses of SASP or by anti-xCT siRNAs on TUBO (A) and tumorspheres (B). (C) Sphere generation ability relative to untreated cells of tumorspheres incubated with SASP. (D) Sphere generation ability of tumorspheres incubated with siRNAs to xCT, scrambled siRNAs, or not at all shown as tumorsphere number/10^3 plated cells. (E) and (F) FACS analysis of xCT and CSC marker expression in spheres 24 hours after transfection with siRNAs to xCT or scrambled siRNAs. (E) histograms show xCT expression; open histograms show the background of negative control IgG stained cells from one representative experiment. (F) relative expression (%) of xCT^+, Sca-1^+, and CD44^high/CD24^low cells in tumorsphere-derived cells transfected with siRNAs to xCT (black bars) compared with cells transfected with scrambled siRNAs (dashed line). G and H, GSH (G) and ROS (H) levels in TUBO cells and their derived tumorspheres after either seeding in normal conditions, transfection with siRNAs to xCT, or scrambled siRNAs over three independent experiments. *, P<0.05; **, P<0.01;***, P<0.001, Student t test. […]
Dissociated tumorspheres were cultured with scalar doses of SASP or its diluent DMSO (Sigma-Aldrich), and the total number of tumorspheres/well was counted 5 days later.

[2] = physiological conditions; cited from earlier work
[3] = in vivo; cited from earlier work
xCT = biological target: T1, xCT (Homo sapiens, UniProt Q9UPY5); details: animal models; cited from earlier work
T1 sequence (Q9UPY5 1-501): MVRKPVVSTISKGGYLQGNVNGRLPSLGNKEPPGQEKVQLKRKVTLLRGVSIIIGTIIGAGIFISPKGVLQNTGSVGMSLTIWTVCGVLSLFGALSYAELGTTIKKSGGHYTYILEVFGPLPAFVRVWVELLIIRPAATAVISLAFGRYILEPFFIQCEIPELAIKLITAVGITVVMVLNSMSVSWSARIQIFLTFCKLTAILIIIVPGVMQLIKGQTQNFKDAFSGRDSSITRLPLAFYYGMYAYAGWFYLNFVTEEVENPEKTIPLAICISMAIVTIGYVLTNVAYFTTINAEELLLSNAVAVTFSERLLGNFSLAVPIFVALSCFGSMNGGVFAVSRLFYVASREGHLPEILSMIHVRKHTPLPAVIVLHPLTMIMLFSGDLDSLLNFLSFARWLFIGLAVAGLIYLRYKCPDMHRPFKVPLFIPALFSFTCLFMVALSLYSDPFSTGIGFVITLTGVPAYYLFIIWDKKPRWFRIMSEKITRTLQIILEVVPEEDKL
T1 sequence (P08195 1-529 partner): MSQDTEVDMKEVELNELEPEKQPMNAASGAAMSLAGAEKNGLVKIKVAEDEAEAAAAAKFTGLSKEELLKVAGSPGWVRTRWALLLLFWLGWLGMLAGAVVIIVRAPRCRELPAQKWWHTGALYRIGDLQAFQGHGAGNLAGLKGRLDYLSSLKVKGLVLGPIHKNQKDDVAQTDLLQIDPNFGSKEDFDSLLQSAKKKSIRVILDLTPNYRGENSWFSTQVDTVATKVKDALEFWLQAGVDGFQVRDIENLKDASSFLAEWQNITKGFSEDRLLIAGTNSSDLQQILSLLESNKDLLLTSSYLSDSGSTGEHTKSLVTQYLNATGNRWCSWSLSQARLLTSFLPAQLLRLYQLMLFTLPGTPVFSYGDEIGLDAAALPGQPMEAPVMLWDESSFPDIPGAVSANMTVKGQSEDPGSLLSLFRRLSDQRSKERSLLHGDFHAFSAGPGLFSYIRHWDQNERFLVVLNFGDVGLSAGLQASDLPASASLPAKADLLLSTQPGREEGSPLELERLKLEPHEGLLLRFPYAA

[4] = system: TUBO-derived tumorspheres; test: Growth of s.c. tumors from TUBO-derived tumorspheres in vaccinated BALB/c mice; details: treated at 2 mm mean diameter, repeated the week later
Source text: TUBO-derived tumorspheres were s.c. implanted into BALB/c mice that were vaccinated when tumors reached 2 or 4 mm mean diameter to evaluate whether xCT immune-targeting hinders breast cancer growth (FIG. 6A-6D).
Female 6- to 8-week-old wild-type (Charles River Laboratories) and Ig μ-chain gene knocked out (BALB-μIgKO) BALB/c mice were maintained at the Molecular Biotechnology Center, University of Torin, and treated in accordance with the University Ethical Committee and European guidelines under Directive 2010/63. Vaccination, performed either before or after tumor challenge, consisted of two intramuscular electroporations at 2 weeks interval, of pVAX1 or pVAX1-xCT plasmids.
Primary s.c. tumors were induced by injecting 1×10^4 TUBO or 4T1 tumorsphere-derived cells.

[5] = system: HCC-1806 derived tumorspheres; test: FACS binding of immune sera from VLP immunized mice to tumorspheres; format: cell-based, human; details: sera (1:50) of mice immunized with VLPs 3 times at 2 week intervals; passage 2 HCC-1806 tumorspheres
Procedure: FIG. 1A-1B. xCT VLPs elicit antibodies that bind to tumorspheres. Immune sera (1:50) from xCT or control (MS2) VLP immunized mice were incubated with HCC-1806 derived tumorspheres. A FITC conjugated anti mouse IgG was used to detect sera antibodies bound to the cells. (A) FACS analysis of the percentage of tumorsphere cells that bound to the immune sera. As a positive control for xCT binding, we used a commercially available xCT polyclonal antibody. (B) Immunofluorescence analysis showing antibody binding to a tumorsphere from an xCT ECD 6 immunized mouse. Cell nuclei are stained with DAPI.
To determine if xCT VLP vaccination generated antibodies that could bind to breast cancer stem cells, sera from animals immunized with VLPs 3 times at 2 week intervals were incubated with passage 2 tumorspheres from the human cell line HCC-1806.

[6] = system: mouse tubo-derived tumorspheres; test: Lung metastases in VLP immunized mice injected i.v. with tumorspheres; format: in vivo; details: 5×10^4 tumorspheres i.v., lungs 20 days later, vs MS2 control VLPs
Procedure: FIG. 2. […] Mice immunized with xCT or MS2 control VLPs were injected (i.v) with 5×10^4 mouse tubo-derived tumorspheres. 20 days later, animals were euthanized and lungs were removed, section and the number of metastatic foci were measured. The number of mice were MS2 (n=2), xCT ECD3 (n=5), xCT ECD5 (n=5) and xCT ECD6 (n=4). Metastatic lesions were counted from two lung sections per animal. Data presented is the average number of lesions per slide. Two-tailed student t test was used to determine significance. ** indicates a p-value <0.01.
Inhibition of xCT function by a […] vaccine inhibits the number of metastatic lesions in the lung by 40% in a well characterized breast cancer stem cell transplantation model.

With `O=C(O)c1cc(/N=N/c2ccc(S(=O)(=O)Nc3ccccn3)cc2)ccc1O` [SASP, sulfasalazine] the IC50 (TUBO cells; Mus musculus, TUBO cells, read-out: IC50, cell viability (MTT)) was 126 ± 25.7 µM, the IC50 [1] was 51.6 ± 3.5 µM and the tumorsphere generation (tumorspheres) was “impaired tumorsphere generation”. For the same molecule, the stability and solubility [2] was “labile and insoluble under physiological conditions”, the bioavailability [3] was “low bioavailability” and the metastatic foci (xCT) was “significant decreases in metastatic foci”.
In the case of `COc1cccc2c1C(=O)c1c(O)c3c(c(O)c1C2=O)C[C@@](O)(C(=O)CO)C[C@@H]3O[C@H]1C[C@H](N)[C@H](O)[C@H](C)O1` [doxorubicin], the “sensitivity of TUBO cells compared with tumorspheres (MTT)” value (TUBO cells; scalar doses) is reported as “higher sensitivity” and the “mice with tumor regression” value [4] is reported as 25%.
For “xCT ECD3: MS2 VLP displaying extracellular domain 3 of human xCT in the AB loop of the coat protein (MQLIKGQTQNFKDAFSGRDSSITR; displayed on MS2 VLP coat protein AB loop; listed as Homo sapiens)”, the “antibody response: immune sera antibodies binding to tumorspheres by FACS” value [5] was “generated antibodies against xCT that were able to bind to human breast cancer cells as well as a commercially available xCT antibody”.
With “xCT ECD6: MS2 VLP displaying extracellular domain 6 of human xCT in the AB loop of the coat protein (YSDPFS; displayed on MS2 VLP coat protein AB loop; listed as Homo sapiens)” the “antibody response: immune sera antibodies binding to tumorspheres by FACS” value [5] was “generated antibodies against xCT that were able to bind to human breast cancer cells as well as a commercially available xCT antibody” and the “reduction of the number of metastases in the lung” value [6] was about 60%.
